Target: T1, ATGL and G0S2 (Homo sapiens, UniProt Q96AD5)
T1 construct: expressed in transfected cells; host or cells: HEK293 cells; NG-497 added to the lysates
Test: Co-immunoprecipitation of ATGL and G0S2
Format: binding
Details: NG-497 40 µM, HEK293 lysates, FLAG-ATGL and His-G0S2
Description: Fig. S2: Effect of NG-497 on the protein-protein interaction of ATGL and G0S2 investigated by co-immunoprecipitation.
HEK293 cells were co-transfected with FLAG-tagged ATGL and His-tagged G0S2 (both human). As controls, FLAG-tagged ATGL was co-expressed with His-LacZ, and His-tagged G0S2 with empty FLAG-vector (e-FLAG). (a) Protein expression of the indicated plasmid combinations was confirmed using anti-Xpress and anti-Flag antibodies. (b) Cell lysates were incubated with anti-FLAG M2 affinity beads in the presence or absence of NG-497 (40 µM). After extensive washing, bound proteins were eluted by boiling in SDS-containing sample buffer and subjected to Western blotting analysis. His-G0S2 was exclusively […]
Data are representative for two
(1 picture or pasted object on this page, not shown here)
Co-immunoprecipitation. HEK293 cells were co-transfected with the indicated plasmid combinations using Metafectene (#T020-5.0; Biontex, Germany) according to the manufacturer’s instructions. […]
Analysis of toxicity in HepG2 hepatocytes. […] Release of LDH into the medium was analyzed using the Cytotoxicity Detection Kit PLUS (LDH) (MilliporeSigma) according to the manufacturer’s instructions. Cytotoxicity was calculated as relative LDH release as compared to fully lysed cells. […]

T1 sequence (Q96AD5 whole entry): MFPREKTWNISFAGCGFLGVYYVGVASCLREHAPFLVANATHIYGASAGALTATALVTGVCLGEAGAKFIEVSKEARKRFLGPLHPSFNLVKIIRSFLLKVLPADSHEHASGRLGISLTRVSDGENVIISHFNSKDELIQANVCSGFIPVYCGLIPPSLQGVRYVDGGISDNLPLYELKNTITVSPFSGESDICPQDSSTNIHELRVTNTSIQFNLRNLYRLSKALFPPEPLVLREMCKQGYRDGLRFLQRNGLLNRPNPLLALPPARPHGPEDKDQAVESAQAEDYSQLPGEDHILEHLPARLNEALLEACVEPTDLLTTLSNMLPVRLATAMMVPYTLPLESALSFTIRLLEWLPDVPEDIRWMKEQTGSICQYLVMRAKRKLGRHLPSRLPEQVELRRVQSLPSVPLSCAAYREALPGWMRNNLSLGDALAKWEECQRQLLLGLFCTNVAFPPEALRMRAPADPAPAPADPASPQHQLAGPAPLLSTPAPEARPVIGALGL
T1 sequence (P27469 whole entry partner): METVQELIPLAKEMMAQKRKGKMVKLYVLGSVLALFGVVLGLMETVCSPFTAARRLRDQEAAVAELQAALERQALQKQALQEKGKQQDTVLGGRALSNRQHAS

CCOc1ccc(-c2cc(OC)cc(C(=O)OC(C)C)n2)cc1 [NG-497]
G0S2 binding to ATGL (co-immunoprecipitation): increased G0S2 binding

Source: publication PMC9011347, “Small-Molecule Inhibitors Targeting Lipolysis in Human Adipocytes” (Journal of the American Chemical Society, 2022)
